Paper PMC7505085 (ACS chemical biology, 2015)
Read-outs that look alike come from different tables or passages of the source.

Tests used:
T98G cells = test: cytotoxicity in mammalian cells; format: cell-based; conditions: read-out: IC50 mammalian cells
T. b. brucei = test: growth inhibitory activity against axenic T. b. brucei parasites; format: cell-based, Trypanosoma brucei; conditions: highest concentration tested 10 μM; for IC50: read-out: IC50 T. b. brucei
HeLa cells = test: cytotoxicity in mammalian cells; format: cell-based; conditions: read-out: IC50 mammalian cells
[1] = HAT treatment; cited from earlier work

For `CC1=CC=CC[C@H](C)NC(=O)C=CC=CC=C[C@H](C)[C@@H](O)[C@H](O)[C@@H](O)C[C@@H](O)/C=C\C=CC(C)=C1` [Lobosamide A], the IC50 (T98G cells) was over 66 µM, the “antitrypanosomal activity (in words)” value (T. b. brucei) was “sub-micromolar” and the IC50 (T. b. brucei) was 0.8 µM.

For `CC1=CC=CC[C@H](C)NC(=O)C=CC=CC=C[C@H](C)[C@@H](O)[C@H](O)[C@@H](O)C[C@@H](O)/C=C/C=CC(C)=C1` [Lobosamide B], the IC50 (T98G cells) was over 66 µM, the IC50 (T. b. brucei) was 6.1 µM and the IC50 (T. b. brucei; listed as B) was under 10 µM.

For `CC1=CC=CC[C@H](C)NC(=O)C=CC=CC=C[C@H](C)[C@@H](O)C[C@@H](O)C[C@@H](O)/C=C\C=CC(C)=C1` [Lobosamide C], the IC50 (HeLa cells) was over 33 µM, the “antitrypanosomal activity (in words)” value (T. b. brucei) was “inactive” and the IC50 (T. b. brucei) was over 10 µM.

In the case of `CC1=CC=CC=CC[C@H](C)NC(=O)C=CC=CC=CC[C@@H](O)[C@H](O)[C@@H](O)C[C@@H](O)C=CC=C1` [Mirilactam A], the “antitrypanosomal activity (in words)” value (T. b. brucei) is reported as “lack of activity” and the IC50 (T. b. brucei) is reported as over 10 µM.

Molecule `CC1=CC=CC=CC[C@H](C)NC(=O)C=CC=CC=CC[C@@H](O)C[C@@H](O)C[C@@H](O)C=CC=C1` [Mirilactam B] has an IC50 (HeLa cells) of over 33 µM and an IC50 (T. b. brucei) of over 10 µM.

In the case of `Nc1nc(N)nc(Nc2ccc([As]3SCC(CO)S3)cc2)n1` (centres unmarked) [melarsoprol], the drug-induced death rate [1] is listed as 5%.
